“And” between values parts separate entries of the source, which are not always exact repeats. Identical values can stand only once.
Tests used:
PA1409 = PA1409 (Pseudomonas aeruginosa, UniProt Q9I3T5); test: Acetyl-polyamine deacetylase assay (positive control); assay type: biochemical; settings: for [acetate] (individual samples): PA1409, acetate released from acetyl-polyamine substrate, Sample 1-2; for [acetate] mean: mean of samples
PsApaH (4) = PsApaH (4) (Pseudomonas sp. M30-35, UniProt A0A1Y0KY79); test: Acetyl-polyamine deacetylase assay; assay type: biochemical; settings: for [acetate] (individual samples): acetate released from acetyl-polyamine substrate, Sample 1-3; for [acetate] mean: mean of samples
Chain of PsApaH (4) (A0A1Y0KY79 1-342 limits assumed): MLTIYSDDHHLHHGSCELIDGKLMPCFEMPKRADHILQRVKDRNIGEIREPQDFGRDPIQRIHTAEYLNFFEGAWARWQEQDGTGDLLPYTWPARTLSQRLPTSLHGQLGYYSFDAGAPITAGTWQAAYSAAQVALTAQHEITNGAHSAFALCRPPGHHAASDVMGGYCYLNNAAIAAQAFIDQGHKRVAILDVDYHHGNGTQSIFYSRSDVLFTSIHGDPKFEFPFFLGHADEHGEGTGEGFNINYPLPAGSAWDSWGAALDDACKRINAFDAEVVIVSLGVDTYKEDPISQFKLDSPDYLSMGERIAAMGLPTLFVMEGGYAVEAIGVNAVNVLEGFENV

Chain of PA1409 (Q9I3T5 whole entry): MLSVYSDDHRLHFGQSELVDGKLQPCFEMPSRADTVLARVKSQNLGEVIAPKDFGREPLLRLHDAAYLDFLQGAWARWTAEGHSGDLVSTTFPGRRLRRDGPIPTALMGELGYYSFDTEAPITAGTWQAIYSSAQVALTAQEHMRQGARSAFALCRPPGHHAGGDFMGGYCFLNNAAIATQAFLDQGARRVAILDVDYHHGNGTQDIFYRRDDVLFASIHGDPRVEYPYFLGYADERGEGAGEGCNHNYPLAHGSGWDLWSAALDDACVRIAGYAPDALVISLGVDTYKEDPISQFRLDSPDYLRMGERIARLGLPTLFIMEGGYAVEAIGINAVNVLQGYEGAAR

Structure (SMILES) | [acetate] (individual samples) (PA1409; time 5 min) | [acetate] (individual samples) (PA1409; time 20 min) | [acetate] (individual samples) (PA1409; time 45 min) | [acetate] mean (PA1409; PA1409, time 5 min) | [acetate] mean (PA1409; PA1409, time 20 min) | [acetate] mean (PA1409; PA1409, time 45 min) | [acetate] (individual samples) (PsApaH (4); time 5 min) | [acetate] (individual samples) (PsApaH (4); time 10 min) | [acetate] (individual samples) (PsApaH (4); time 20 min) | [acetate] (individual samples) (PsApaH (4); time 45 min) | [acetate] mean (PsApaH (4); time 5 min) | [acetate] mean (PsApaH (4); time 10 min) | [acetate] mean (PsApaH (4); time 20 min) | [acetate] mean (PsApaH (4); time 45 min) | [acetate] (individual samples) (PA1409; time 10 min) | [acetate] mean (PA1409; PA1409, time 10 min)
CC(=O)NCCCCN [N1-acetylputrescine] | 2.66 mM and 2.46 mM | 10.76 mM and 10.61 mM | 15.78 mM and 16.29 mM | 2.56 mM | 10.685 mM | 16.035 mM | 1.6 mM (2×) and 2.1 mM | 8.8 mM and 8.3 mM and 8 mM | 12 mM and 13 mM and 12.2 mM | 18 mM and 16.6 mM and 17.6 mM | 1.767 mM | 8.367 mM | 12.4 mM | 17.4 mM | – | –
CC(=O)NCCCNCCCCNCCCN [N1-acetylspermine] | 4.758 mM and 5.242 mM | 24.4938 mM and 25.2427 mM | 26.7845 mM and 27.0048 mM | 5 mM | 24.8682 mM | 26.8947 mM | 3.446 mM and 3.815 mM and 3.598 mM | 5.9022 mM and 5.728 mM and 6.011 mM | 8.6196 mM and 9.685 mM and 8.576 mM | 12.6414 mM and 13.25 mM and 13.0327 mM | 3.62 mM | 5.88 mM | 8.96 mM | 12.9747 mM | 18.4144 mM and 18.3703 mM | 18.3923 mM
CC(=O)NCCCCNCCCN [N8-acetylspermidine] | 5.081 mM and 5.477 mM | 23.7355 mM and 22.9876 mM | 24.7914 mM and 25.3193 mM | 5.279 mM | 23.3615 mM | 25.0553 mM | – | 2.185 mM and 2.098 mM and 1.946 mM | 3.446 mM and 3.4674 mM and 3.489 mM | 4.967 mM and 5.12 mM (2×) | – | 2.076 mM | 3.4674 mM | 5.069 mM | 19.9519 mM and 19.336 mM | 19.6439 mM
CC(=O)NCCCCCN [N1-acetylcadaverine] | 3.7616 mM and 3.63 mM | 22.4156 mM and 22.0637 mM | 23.2955 mM and 23.4715 mM | 3.696 mM | 22.2396 mM | 23.3835 mM | 2.228 mM and 2.337 mM and 2.011 mM | 5.272 mM and 5.38 mM and 5.337 mM | 7.446 mM and 7.663 mM and 8.054 mM | 9.337 mM and 10.2283 mM and 9.967 mM | 2.192 mM | 5.33 mM | 7.721 mM | 9.844 mM | 14.5405 mM and 14.4965 mM | 14.5185 mM
